Measurements: patent US12630501B2, “Anti-fibrotic compounds and use thereof” (HADASIT MEDICAL RESEARCH SERVICES AND DEVELOPMENT LTD., priority 2019, dated 2026)
Several values for one entry are separate records, joined by “and”; a condition that tells them apart may be missing. Equal entries are not always repeated.

Tests used:
Type in all cases: cell-based, human
Ku70 = Ku70 immunoprecipitation with pan-acetyl / Ku70 immunoblot in IPF-lung myofibroblasts
Description: (§1) Human lung myofibroblasts Differentiated fibroblasts from IPF-lungs and controls from patient lung biopsies performed for tumor diagnosis were obtained under a protocol detailed in Wallach-Dayan et al., J. Autoimmun. 59: 67-76, 2015. LL 97A (AlMy) (ATCC® CCL-191™)-IPF-lung, and LL 24 (ATCC® CCL-151™)-normal lung fibroblast cell lines were used.
Immunoprecipitation and immunoblotting Standard protocols were performed as described in Golan-Gerstl et al., Am. J. Respir. Cell Mol. Biol. 47: 271-279, 2012.
(§2) FLIP downregulation from an OD of 1.85 to 0.49 (about 3.5-fold) was detected in WB (FIG. 4F), and a […] from a mean fluorescence intensity (MFI)=10^3 to only 10^1 was detected with flow cytometry (FIG. 4G). Thus, SIRT1-mediated Ku70-deacetylation stabilizes IPF-lung myofibroblast FLIP via Ku70/FLIP complex. This effect of CMH on Ku70 further disrupts Ku70/FLIP complex and destabilizes FLIP in IPF-lung myofibroblasts.
(§3) IPF cell line ATCC-191 (0.5×10^6), were exposed in culture (10% DMEM) to a compound of Formula 6 (1 or 3 μM) vs. 4% DMSO (vehicle) for 16 h. Ku70 immunoprecipitation with subsequent pan-acetyl (FIG. 8A) and immunoblots of Ku70 with anti-Ku70 mAb (FIG. 8B) or FLIP with anti-FLIP mAb (FIG. 8C) were measured. […] IPF-lung myofibroblasts decreased FLIP expression from an OD of 1.00 to 0.51 (about twofold, FIG. 8C).

FLIP = FLIP protein by Western blot and flow cytometry in IPF-lung myofibroblasts; settings: 16 h
Description: as §1
FLIP protein in lung myofibroblasts Standard WB and flow cytometry were performed as described in Cohen et al., Am. J. Respir. Cell Mol. Biol. 40: 231-238, 2009.
as §2, §3
IPF cell line ATCC-191 (0.5×10^6), were exposed in culture (10% DMEM) to a compound of Formula 12 (1 μM), vs. 4% DMSO (vehicle) for 16 h. Immunoblots of FLIP with anti-FLIP mAb were performed (FIG. 9). […] Thus, the compound of Formula 12 attenuates FLIP stabilization in IPF-lung myofibroblast.

IPF cell line ATCC-191 = experiment: Caspase-3 cleaved vs. uncleaved immunoblot (direct cytotoxicity); settings: 72 h
Description: IPF cell line ATCC-191 (0.5×10^6), were exposed in culture (10% DMEM) to a compound of Formula 6 (0.1-30 μM) vs. 4% DMSO (vehicle) for 72 h. Cells were lysed and immunoblots of caspase-3 cleaved vs. uncleaved were performed. […] Lower concentrations of a compound of Formula 6 treated cells even decreased their ratio indicating no toxicity of the analogue at these concentrations.

## O=C(CCCCOc1ccc2ccccc2c1)NO [Formula 6]
Ku70; Formula 6 1 μM, 16 h
  Increase of Ku70 acetylation: about 80 fold
  Ku70 levels (anti-Ku70 immunoblot): without changing
Ku70; Formula 6 1 μM, 16 h, ATCC-191, vehicle 0.007
  Ku70 acetylation, optical density ratio to GAPDH (OD), pan-acetyl IB of Ku70 IP: 0.55 OD
Ku70; IPF-lung myofibroblasts
  Inhibition of Ku70-deacetylation compared with CMH: to a greater extent than CMH
FLIP; Formula 6 1 or 3 μM
  Decrease of FLIP expression: about twofold
FLIP; Formula 6 1 or 3 μM, ATCC-191, vehicle 1.00
  FLIP expression OD (anti-FLIP immunoblot): 0.51 OD
IPF cell line ATCC-191; 0.1 μM
  Cleaved caspase-3: 7.5
  Cleaved/Uncleaved caspase-3: 0.27
  Uncleaved caspase-3: 27.37
IPF cell line ATCC-191; 0.3 μM
  Cleaved caspase-3: 11.66
  Cleaved/Uncleaved caspase-3: 0.18
  Uncleaved caspase-3: 65.84
IPF cell line ATCC-191; 1 μM
  Cleaved caspase-3: 27.59
  Cleaved/Uncleaved caspase-3: 0.46
  Uncleaved caspase-3: 60.57
IPF cell line ATCC-191; 3 μM
  Cleaved caspase-3: 81.78
  Cleaved/Uncleaved caspase-3: 1.10
  Uncleaved caspase-3: 74.31
IPF cell line ATCC-191; 10 μM
  Cleaved caspase-3: 112.38
  Cleaved/Uncleaved caspase-3: 1.43
  Uncleaved caspase-3: 78.84
IPF cell line ATCC-191; 30 μM
  Cleaved caspase-3: 93.19
  Cleaved/Uncleaved caspase-3: 2.49
  Uncleaved caspase-3: 37.4
IPF cell line ATCC-191; 0.1-30 μM, in the absence of Fas
  Direct cytotoxic effects on cells: does not exert direct cytotoxic effects

## COc1ccc(OCCCCC(=O)NO)cc1 [Formula 12]
FLIP; Formula 12 1 μM
  Decrease of FLIP levels: about twofold
FLIP; Formula 12 1 μM, ATCC-191, vehicle 9.5, 13.3 and 8.4
  FLIP levels, optical density ratio to GAPDH (OD): 4.7 OD and 3.7 OD and 4.8 OD
